Source: patent publication US10125134B2 (Mirati Therapeutics, Inc., priority 2016, dated 2018)
Where two headings read alike, the source gives them in different places.

Assays:
KRas G12C = KRas G12C (Homo sapiens, UniProt P01116, C118S/C51S/C80L/G12C); test: KRas G12C Modification Assay (LCMS detection of covalent adduct); format: binding; conditions: normalized percent of control; tested at 5 μM concentration for 3 hours
In short: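 Cys-light KRas G12C mutant protein incubated with compound in K-Ras assay buffer, reactions quenched at set time points with 25 mM acetic acid and analysed by intact-protein LC/MS on a C-3 column. Deconvoluted mass heights expressed as percent of control (POC) relative to compound-free protein.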

[1] = test system: NCI-H358 cells (express KRas G12C), Phospho-ERK; test: Cellular inhibition of KRas G12C: Phospho-ERK in NCI-H358 cells; format: cell-based; conditions: Homo sapiens, pERK(Thr202/Tyr204) normalized with GAPDH, NCI-H358 cells, 3 hours, read-out: IC50
In short: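 IC50 derived by 4-parameter fit of GAPDH-normalized pERK(Thr202/Tyr204) signal, as percent of DMSO control. Signal came from in-cell immunodetection with infrared secondaries after 3 h compound exposure of KRas G12C NCI-H358 cells at 0.5% DMSO.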

| Compound | POC (KRas G12C) | IC50 ([1]; NCI-H358, 3 h) [nM] | IC50 [1] [nM] |
| --- | --- | --- | --- |
| C=CC(=O)N1CCN(c2nc(OCCN3CCC[C@@H](OC)C3)nc3c2CCN(c2cc(O)cc4ccccc24)C3)CC1 [Example 99, (R)-1-(4-(7-(3-hydroxynaphthalen-1-yl)-2-(2-(3-methoxypiperidin-1-yl)ethoxy)-5,6,7,8-tetrahydropyrido[3,4-d]pyrimidin-4-yl)piperazin-1-yl)prop-2-en-1-one] | C (“C”>50% POC) | > 1000 | – |
| C=CC(=O)N1CCN(c2nc(O[C@H](C)CN(C)C)nc3c2CCN(c2cc(O)c(F)c4ccccc24)C3)CC1 [Example 124, (R)-1-(4-(2-((1-(dimethylamino)propan-2-yl)oxy)-7-(4-fluoro-3-hydroxynaphthalen-1-yl)-5,6,7,8-tetrahydropyrido[3,4-d]pyrimidin-4-yl)piperazin-1-yl)prop-2-en-1-one] | C (“C”>50% POC) | – | > 1000 |
| C=CC(=O)N1CCN(c2nc(OC[C@@H]3[C@H](F)CCN3C)nc3c2CCN(c2cccc4ccccc24)C3)C[C@@H]1CC#N [Example 438, 2-((S)-1-acryloyl-4-(2-(((2R,3R)-3-fluoro-1-methylpyrrolidin-2-yl)methoxy)-7-(naphthalen-1-yl)-5,6,7,8-tetrahydropyrido[3,4-d]pyrimidin-4-yl)piperazin-2-yl)acetonitrile] | C (“C”>50% POC) | 0.1 to 1000 | – |
| C=CC(=O)N1CCN(c2nc(OC[C@@H]3CCCN3C)nc3c2CCN(c2c(F)ccc4ccccc24)C3)CC1CC#N (stereo partly drawn) [Example 311, 2-(1-acryloyl-4-(7-(2-fluoronaphthalen-1-yl)-2-(((S)-1-methylpyrrolidin-2-yl)methoxy)-5,6,7,8-tetrahydropyrido[3,4-d]pyrimidin-4-yl)piperazin-2-yl)acetonitrile] | C (“C”>50% POC) | 0.1 to 1000 | – |
| C=CC(=O)N1CCN(c2nc(OC(C)CCN(C)C)nc3c2CCN(c2cc(O)cc4ccccc24)C3)CC1 (centres unmarked) [Example 21, 1-(4-(2-((4-(dimethylamino)butan-2-yl)oxy)-7-(3-hydroxynaphthalen-1-yl)-5,6,7,8-tetrahydropyrido[3,4-d]pyrimidin-4-yl)piperazin-1-yl)prop-2-en-1-one] | C (“C”>50% POC) | 0.1 to 1000 | – |
| C=CC(=O)N1CCN(c2nc(OC[C@@H]3CCCN3CC(=O)N(C)C)nc3c2CCN(c2cccc4ccccc24)C3)CC1CC#N (stereo partly drawn) [Example 397, 2-((2S)-2-(((4-(4-acryloyl-3-(cyanomethyl)piperazin-1-yl)-7-(naphthalen-1-yl)-5,6,7,8-tetrahydropyrido[3,4-d]pyrimidin-2-yl)oxy)methyl)pyrrolidin-1-yl)-N,N-dimethylacetamide] | C (“C”>50% POC) | 0.1 to 1000 | – |
| C=CC(=O)N1CCN(c2nc(OC[C@@H]3CCCN3CCO)nc3c2CCN(c2cccc4ccccc24)C3)C[C@@H]1CC#N [Example 341, 2-((S)-1-acryloyl-4-(2-(((S)-1-(2-hydroxyethyl)pyrrolidin-2-yl)methoxy)-7-(naphthalen-1-yl)-5,6,7,8-tetrahydropyrido[3,4-d]pyrimidin-4-yl)piperazin-2-yl)acetonitrile] | C (“C”>50% POC) | 0.1 to 1000 | – |
| C=CC(=O)N1CCN(c2nc(O[C@H](C)CN3CC[C@@H](OC)C3)nc3c2CCN(c2cc(O)cc4ccccc24)C3)CC1 [Example 63, 1-(4-(7-(3-hydroxynaphthalen-1-yl)-2-(((R)-1-((R)-3-methoxypyrrolidin-1-yl)propan-2-yl)oxy)-5,6,7,8-tetrahydropyrido[3,4-d]pyrimidin-4-yl)piperazin-1-yl)prop-2-en-1-one] | C (“C”>50% POC) | > 1000 | – |
| C=CC(=O)N1CCN(c2nc(OC[C@H]3CCCN3C)nc3c2CCN(c2cc(O)cc4ccccc24)C3)[C@@H](C)C1 [Example 203, 1-((S)-4-(7-(3-hydroxynaphthalen-1-yl)-2-(((R)-1-methylpyrrolidin-2-yl)methoxy)-5,6,7,8-tetrahydropyrido[3,4-d]pyrimidin-4-yl)-3-methylpiperazin-1-yl)prop-2-en-1-one] | C (“C”>50% POC) | 0.1 to 1000 | – |
| C=CC(=O)N1CCN(c2nc(OCC(O)CO)nc3c2CCN(c2cc(O)cc4ccccc24)C3)CC1 (centres unmarked) [Example 143, 1-[4-[2-(2,3-dihydroxypropoxy)-7-(3-hydroxy-1-naphthyl)-6,8-dihydro-5H-pyrido[3,4-d]pyrimidin-4-yl]piperazin-1-yl]prop-2-en-1-one] | C (“C”>50% POC) | > 1000 | – |
| C=CC(=O)N1CCN(c2nc(OC(C)CNC)nc3c2CCN(c2cc(O)cc4ccccc24)C3)CC1 (centres unmarked) [Example 70, 1-(4-(7-(3-hydroxynaphthalen-1-yl)-2-((1-(methylamino)propan-2-yl)oxy)-5,6,7,8-tetrahydropyrido[3,4-d]pyrimidin-4-yl)piperazin-1-yl)prop-2-en-1-one] | C (“C”>50% POC) | > 1000 | – |
| C=CC(=O)N1CCN(c2nc(OC[C@@H]3CCCN3C)nc3c2CCN(c2ccc(F)cc2C(F)(F)F)C3)CC1CC#N (stereo partly drawn) [Example 276, 2-(1-acryloyl-4-(7-(4-fluoro-2-(trifluoromethyl)phenyl)-2-(((S)-1-methylpyrrolidin-2-yl)methoxy)-5,6,7,8-tetrahydropyrido[3,4-d]pyrimidin-4-yl)piperazin-2-yl)acetonitrile] | C (“C”>50% POC) | 0.1 to 1000 | – |
| C=CC(=O)N1CCN(c2nc(OC[C@@H]3CCCN3C)nc3c2CCN(c2cccc(F)c2C)C3)CC1CC#N (stereo partly drawn) [Example 410, 2-(1-acryloyl-4-(7-(3-fluoro-2-methylphenyl)-2-(((S)-1-methylpyrrolidin-2-yl)methoxy)-5,6,7,8-tetrahydropyrido[3,4-d]pyrimidin-4-yl)piperazin-2-yl)acetonitrile] | C (“C”>50% POC) | 0.1 to 1000 | – |
| CN1CCC[C@H]1COc1nc2c(c(N3CCN(C(=O)/C=C/CN4CCOCC4)[C@@H](CC#N)C3)n1)CCN(c1cccc(Cl)c1C(F)(F)F)C2 [Example 346, 2-[(2S)-4-[7-[3-chloro-2-(trifluoromethyl)phenyl]-2-[[(2S)-1-methylpyrrolidin-2-yl]methoxy]-6,8-dihydro-5H-pyrido[3,4-d]pyrimidin-4-yl]-1-[(E)-4-morpholinobut-2-enoyl]piperazin-2-yl]acetonitrile] | C (“C”>50% POC) | 0.1 to 1000 | – |
| CN1CCC[C@H]1COc1nc2c(c(N3CCN(C(=O)/C=C/CN4CCCC4)[C@@H](CC#N)C3)n1)CCN(c1cccc(Cl)c1C(F)(F)F)C2 [Example 347, 2-[(2S)-4-[7-[3-chloro-2-(trifluoromethyl)phenyl]-2-[[(2S)-1-methylpyrrolidin-2-yl]methoxy]-6,8-dihydro-5H-pyrido[3,4-d]pyrimidin-4-yl]-1-[(E)-4-pyrrolidin-1-ylbut-2-enoyl]piperazin-2-yl]acetonitrile] | C (“C”>50% POC) | 0.1 to 1000 | – |
| C=CC(=O)N1CC2(C1)CN(c1nc(OCCN(C)C)nc3c1CCN(c1cc(O)cc4ccccc14)C3)C2 [Example 16, 1-(6-(2-(2-(dimethylamino)ethoxy)-7-(3-hydroxynaphthalen-1-yl)-5,6,7,8-tetrahydropyrido[3,4-d]pyrimidin-4-yl)-2,6-diazaspiro[3.3]heptan-2-yl)prop-2-en-1-one] | C (“C”>50% POC) | > 1000 | – |
